Assay results: ChEMBL document CHEMBL1201862, “PubChem BioAssay data set” (2004)
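Tested at 5 concentrations; 48 h exposure; 96-well plates; endpoints linearly interpolated, else capped at highest concentration. Abbreviation: GI50, concentration required for 50% inhibition of growth.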 Calls of active or inactive are those of the source. No stated cut-off is given here; in the data, active = GI50 up to about 1.1 µM and inactive = higher.

Experiments:
Assay in all cases: inhibition of tumour cell growth, NCI panel, 48 h
[1] = system: IGROV-1
[2] = system: HCT-15
[3] = system: KM12
[4] = system: NCI-H460
[5] = system: MDA-MB-231
[6] = system: DU-145
[7] = system: SF-295
[8] = system: 786-0
[9] = system: OVCAR-3
[10] = system: OVCAR-4
[11] = system: LOX IMVI
[12] = system: SK-MEL-5
[13] = system: SK-MEL-28
[14] = system: K562
[15] = system: OVCAR-8
[16] = system: MOLT-4
[17] = system: A498
[18] = system: HOP-92
[19] = system: UACC-62

SMILES	GI50 [1]	GI50 [2] [µM]	GI50 [3]	GI50 [4]	GI50 [5]	GI50 [6]	GI50 [7]	GI50 [8]	GI50 [9]	GI50 [10]	GI50 [11]	GI50 [12]	GI50 [13]	GI50 [14]	GI50 [15]	GI50 [16]	GI50 [17]	GI50 [18]	GI50 [19]
O=P(c1ccccc1)(c1ccccc1)C(NCc1ccccc1)c1ccc(F)cc1 (stereo not given)	15.5 µM (inactive)	13.2	13.2 µM (inactive)	12.2 µM (inactive)	11.1 µM (inactive)	20 µM (inactive)	15.2 µM (inactive)	18.5 µM (inactive)	14.2 µM (inactive)	20.3 µM (inactive)	14.2 µM (inactive)	15.9 µM (inactive)	15.1 µM (inactive)	18.7 µM (inactive)	19 µM (inactive)	14.2 µM (inactive)	15.2 µM (inactive)	12.9 µM (inactive)	13 µM (inactive)
COC(=O)/C=C1/OC(c2ccccc2)=CC1=O	16 µM (inactive)	15.6	16.7 µM (inactive)	19.7 µM (inactive)	17 µM (inactive)	13.7 µM (inactive)	14.2 µM (inactive)	14.5 µM (inactive)	17.9 µM (inactive)	16.4 µM (inactive)	16.2 µM (inactive)	19.9 µM (inactive)	19.9 µM (inactive)	12 µM (inactive)	15 µM (inactive)	6.38 µM (inactive)	13.7 µM (inactive)	22.9 µM (inactive)	18.6 µM (inactive)
Cc1ccc(N2CN3OC(=O)N(c4ccccc4)[C@@]3(c3ccccc3)C2)cc1	33 µM (inactive)	23.2	33.9 µM (inactive)	21.6 µM (inactive)	26.9 µM (inactive)	48.4 µM (inactive)	17.5 µM (inactive)	44.5 µM (inactive)	19.4 µM (inactive)	34.2 µM (inactive)	37.5 µM (inactive)	31.3 µM (inactive)	> 100 µM (inactive)	22.3 µM (inactive)	57 µM (inactive)	35.1 µM (inactive)	32.1 µM (inactive)	16.9 µM (inactive)	21.2 µM (inactive)
COc1nc(N)c(N=O)c(OCc2ccccc2)n1	> 10 µM (inactive)	2.5	> 10 µM (inactive)	9.29 µM (inactive)	3.32 µM (inactive)	> 10 µM (inactive)	> 10 µM (inactive)	5.21 µM (inactive)	4.01 µM (inactive)	3.61 µM (inactive)	4.19 µM (inactive)	7.89 µM (inactive)	> 10 µM (inactive)	> 10 µM (inactive)	3.52 µM (inactive)	8.39 µM (inactive)	> 10 µM (inactive)	> 10 µM (inactive)	5.89 µM (inactive)
CC(C)=CCc1c(O)c(CC=C(C)C)c2oc(-c3ccc(O)cc3O)c(CC=C(C)C)c(=O)c2c1O	10.6 µM (inactive)	5.47	5.57 µM (inactive)	4.48 µM (inactive)	12.6 µM (inactive)	12.4 µM (inactive)	7.45 µM (inactive)	8.91 µM (inactive)	7.1 µM (inactive)	5.51 µM (inactive)	5.26 µM (inactive)	10.8 µM (inactive)	12.2 µM (inactive)	4.05 µM (inactive)	4.88 µM (inactive)	3.33 µM (inactive)	13.8 µM (inactive)	8.26 µM (inactive)	7.14 µM (inactive)
CCN1CCCc2cc3c(C(F)(F)F)cc(=O)oc3cc21	> 100 µM (inactive)	> 100	> 100 µM (inactive)	82.8 µM (inactive)	53.2 µM (inactive)	> 100 µM (inactive)	63.4 µM (inactive)	39.4 µM (inactive)	33 µM (inactive)	> 100 µM (inactive)	82.2 µM (inactive)	28.6 µM (inactive)	> 100 µM (inactive)	63.8 µM (inactive)	91.6 µM (inactive)	42.4 µM (inactive)	45.9 µM (inactive)	33.3 µM (inactive)	> 100 µM (inactive)
CC1=NN(C(=O)CC(=O)Nc2cccc(C)c2)C(=O)C1/N=N/c1ccc(S(=O)(=O)CCOS(=O)(=O)O)cc1 (stereo not given)	0.63 µM (active)	0.319	2.51 µM (inactive)	3.24 µM (inactive)	0.275 µM (active)	32.3 µM (inactive)	2.82 µM (inactive)	0.463 µM (active)	3.65 µM (inactive)	9.42 µM (inactive)	0.345 µM (active)	0.369 µM (active)	3.9 µM (inactive)	0.388 µM (active)	0.486 µM (active)	0.406 µM (active)	11.5 µM (inactive)	2.25 µM (inactive)	1.81 µM (inactive)
CCCC(=O)Oc1c2ccsc2c(OC(=O)CCC)c2ccsc12	4.18 µM (inactive)	1.21	7.64 µM (inactive)	1.05 µM (active)	1.49 µM (inactive)	0.857 µM (active)	0.457 µM (active)	4.55 µM (inactive)	1.07 µM (active)	2.94 µM (inactive)	0.594 µM (active)	0.804 µM (active)	0.951 µM (active)	1.24 µM (inactive)	0.407 µM (active)	1.96 µM (inactive)	4.6 µM (inactive)	1.1 µM (active)	1.14 µM (inactive)
C=C1c2nc3ccccc3n2C=C(c2ccc(Cl)cc2)N1c1ccc(OC)cc1	6.27 µM (inactive)	10.1	6.81 µM (inactive)	6.47 µM (inactive)	12.7 µM (inactive)	15.6 µM (inactive)	6.19 µM (inactive)	4.39 µM (inactive)	10.8 µM (inactive)	6 µM (inactive)	36.9 µM (inactive)	6.53 µM (inactive)	7.57 µM (inactive)	25.6 µM (inactive)	4.43 µM (inactive)	73.1 µM (inactive)	20.6 µM (inactive)	10.3 µM (inactive)	13 µM (inactive)
O=C(O)[C@@H]1[C@H](C(=O)O)[C@H](C(=O)O)C[C@@H]1C(=O)O	> 100 µM (inactive)	> 100	> 100 µM (inactive)	> 100 µM (inactive)	> 100 µM (inactive)	> 100 µM (inactive)	> 100 µM (inactive)	> 100 µM (inactive)	> 100 µM (inactive)	> 100 µM (inactive)	> 100 µM (inactive)	> 100 µM (inactive)	> 100 µM (inactive)	> 100 µM (inactive)	> 100 µM (inactive)	> 100 µM (inactive)	> 100 µM (inactive)	> 100 µM (inactive)	> 100 µM (inactive)
CC12Nc3c(Cl)cc(Cl)cc3N1C(=O)c1ccccc12 (stereo not given)	92.3 µM (inactive)	> 100	> 100 µM (inactive)	95.5 µM (inactive)	> 100 µM (inactive)	> 100 µM (inactive)	> 100 µM (inactive)	> 100 µM (inactive)	> 100 µM (inactive)	90.2 µM (inactive)	96.6 µM (inactive)	> 100 µM (inactive)	> 100 µM (inactive)	> 10 µM (inactive)	> 100 µM (inactive)	58.7 µM (inactive)	18.5 µM (inactive)	17.9 µM (inactive)	> 100 µM (inactive)
CC(C)N(C(=O)C12C3(C(=O)OC(C)(C)C)C4C5(C#N)C3C1(C(=O)OC(C)(C)C)C5C42C(=O)OC(C)(C)C)C(C)C (stereo not given)	> 100 µM (inactive)	89.5	> 100 µM (inactive)	75.7 µM (inactive)	23 µM (inactive)	> 100 µM (inactive)	58.2 µM (inactive)	34.6 µM (inactive)	47.8 µM (inactive)	71.6 µM (inactive)	14.4 µM (inactive)	60.1 µM (inactive)	29.4 µM (inactive)	34.6 µM (inactive)	> 100 µM (inactive)	13.6 µM (inactive)	> 100 µM (inactive)	8.32 µM (inactive)	40.6 µM (inactive)
CC(C)=CCC/C(C)=C/CC/C(C)=C/CC(CO)N(C)CC/C=C(\C)CCC=C(C)C (stereo not given)	3.1 µM (inactive)	3.78	3.94 µM (inactive)	3.48 µM (inactive)	9.86 µM (inactive)	11.5 µM (inactive)	7.1 µM (inactive)	1.91 µM (inactive)	14.2 µM (inactive)	8.97 µM (inactive)	2.92 µM (inactive)	8.39 µM (inactive)	5.87 µM (inactive)	1.6 µM (inactive)	7 µM (inactive)	2.39 µM (inactive)	14.9 µM (inactive)	2.7 µM (inactive)	16.1 µM (inactive)
CC(C)C1=CC2=C(C(=O)C1=O)C13CCCC(C)(C)C1CC2OC3=O (stereo not given)	17.3 µM (inactive)	12.8	31.8 µM (inactive)	26.2 µM (inactive)	21.9 µM (inactive)	18.8 µM (inactive)	37 µM (inactive)	17.9 µM (inactive)	16.7 µM (inactive)	18.6 µM (inactive)	20.1 µM (inactive)	25.2 µM (inactive)	14.1 µM (inactive)	3.64 µM (inactive)	19.2 µM (inactive)	6.11 µM (inactive)	27.2 µM (inactive)	19 µM (inactive)	13.4 µM (inactive)
CN(C)Cc1cc(C(=O)/C=C/c2ccc(F)cc2)cc(CN(C)C)c1O	22.4 µM (inactive)	7.78	18.9 µM (inactive)	10.5 µM (inactive)	31 µM (inactive)	42.2 µM (inactive)	14 µM (inactive)	37.7 µM (inactive)	9.23 µM (inactive)	41.8 µM (inactive)	5.92 µM (inactive)	19.1 µM (inactive)	29.2 µM (inactive)	17.8 µM (inactive)	21.4 µM (inactive)	19.5 µM (inactive)	24.5 µM (inactive)	29.2 µM (inactive)	3.14 µM (inactive)
